Test results taken from patent publication US20090036410A1, “Structured Phospholipids” (BTG INTERNATIONAL LIMITED, priority 2004, published 2009).

How the values were obtained:
[1] = Storage stability / handling of the isolated phospholipid; assay type: physicochemical
Description: Suitable diluents and carriers can be found in the literature in texts such as Remington's Pharmaceutical Sciences. One particular material investigated by the inventors has been PEG (polyethylene glycol) eg. PEG200. This can be used at amounts between 1 and 99% PEG to 99% to 1% by weight of active phospholipid, preferably 20 to 80% PEG to 80 to 20% of phospholipid and more preferably 40 to 60% PEG to 60 to 40% by weight of phospholipid.
The invention provides a first method of its preparation of compounds GGPc, DHGLADHGLAPc and AAPc in a one step process (scheme 5, method A) by reaction of sn-glycerophosphocholine cadmium complex with γ-linolenic, dihomo-γ-linolenic, or arachidonic anhydride (formed eg. from the n-6 acid and dicylohexylcarbodiimide). Purification of the crude product uses eg. copper sulfate washes to remove DMAP and column chromatography to take out other by-products. The first batch of product for the γ-linolenic product (44 g, 85% purity) was obtained as a yellow wax.
On a 7 g scale higher purity GGPc could be obtained by more rigorous chromatography. Furthermore freeze-drying a dioxan solution of this material gave a white solid. This solid was hygroscopic and gained weight and went to a foam on prolonged exposure to the atmosphere.

[2] = test system: CREAE model MOG in C57BL mice; test: CREAE model, MOG-induced, clinical EAE score; assay type: in vivo
acute rat EAE = conditions: depending on dose; cited from earlier work
EAE = conditions: guinea-pig; cited from earlier work

SMILES | purity after storage (deterioration) ([1]; over 6 months, first batch, initially 85% purity yellow wax, turned brown suggesting oxidation) [%] | hygroscopicity of freeze-dried white solid ([1]; prolonged exposure to the atmosphere, gained weight and went to a foam) | effect on EAE score compared to CCC (dose response curve) ([2]; 100 microL dose, p<0.050 compared to CCC (150 microL)) | protection / severity of CREAE ([2]; 100 ul of 50% phospholipid in PEG200) | efficacy in the CREAE model compared to the lipid GGG of PCT/GB2004/003524 ([2]; MOG in C57BL mice, oral, initial results) | protection in CREAE ([2]; dose 100 ul, oral) | shape of dose response curve ([2]; doses 25, 50, 100 and 200 microL) | effect on EAE score (dose response curve) ([2]; higher dose of 200microL) | protection in acute rat EAE (acute rat EAE) | effect on incidence and severity of EAE (EAE)
CCCCC/C=C\C/C=C\C/C=C\CCCCC(=O)OC[C@H](COP(=O)([O-])OCC[N+](C)(C)C)OC(=O)CCCC/C=C\C/C=C\C/C=C\CCCCC [GGPc, 1,2-Di(γ-linolenyl)-sn-glycerophosphocholine] | 70 | hygroscopic | significant effect | protection/reduced severity | superior in efficacy | excellent protection | bell shaped curve | no effect |  | 
CCCCC/C=C\C/C=C\CCCCCCCC(=O)O [linoleic acid] |  |  |  |  |  |  |  |  | dose-dependent action on the clinical severity but did not abolish it | partially suppresses
CCCCC/C=C\C/C=C\C/C=C\CCCCC(=O)O [γ-linolenic acid] |  |  |  |  |  |  |  |  | fully protective | 
